Test system: human non-small cell lung cancer cell line (A549 cell line)
Assay: Detection of heat shock protein (Hsp70) released from paclitaxel-treated A549 cells with the Hsp70 electrochemical immunosensor
Assay type: cell-based
Settings: A549 cell line treated with 0, 75, 100 μM Paclitaxel; culture solution as control; FIG. 12
Excerpt: It was known that the expression of heat shock protein (Hsp70) was highly correlated with the growth of cancer cells. The present invention further uses Hsp70 electrochemical immunosensor (BSA/antiHsp70/EN-LC/Au@MnO2/MoO3) to detect heat shock protein (Hsp70) in human non-small cell lung cancer cell line (A549 cell line).
Therefore, the Hsp70 electrochemical immunosensor provided by the present invention could be used for detecting heat shock protein (Hsp70).

CC(=O)O[C@H]1C(=O)[C@@]2(C)[C@H]([C@H](OC(=O)c3ccccc3)[C@]3(O)C[C@H](OC(=O)[C@H](O)[C@@H](NC(=O)c4ccccc4)c4ccccc4)C(C)=C1C3(C)C)[C@]1(OC(C)=O)CO[C@@H]1C[C@@H]2O [paclitaxel, Paclitaxel]
curve (the radius) of Hsp70 electrochemical immunosensor, indicating bound heat shock protein (Hsp70) released by the cells: increased
